From patent publication US12492403B2, “Aptamers and the use thereof in the treatment of cancer” (FUNDACIÓN PARA LA INVESTIGACIÓN BIOMÉDICA DEL HOSPITAL …, priority 2018, dated 2025)

Experiments:
[1] = test system: MCF7 cells; experiment: MTT activity assay, aptamers transfected with Lipofectamine 2000; format: cell-based, human; conditions: MCF7, aptamer 250 nM, 48 hours after transfection
Protocol: (§1) FIG. 3. Effect of the aptamers on MTT activity of MCF7 and MDA-MB-231 cells. The cells were seeded in 96-well plates at a density of 10^4 cells/well. After 16-24 hours, they were transfected with aptamers apMNKQ1, apMNKQ2, apMNKQ3, and apMNKQ4 at 250 nM for 48 hours after which MTT activity assays were performed. The bars represent the mean±SEM of 3-6 independent experiments (*p<0.05, **p<0.01, and ***p<0.001 with respect to the control aptamer AT).
(§2) FIGS. 8A-8C. Effect of aptamer apMNKQ2 on MTT activity of breast cell lines. MCF7, MDA-MB-231, and MDA-MB-468 cells were seeded in 96-well plates at a density of 10^4 cells/well. […] The graphs represent the means±SEM of 3 independent experiments (*p<0.05, **p<0.01, and ***p<0.001 with respect to the control AT).
(§3) The Lipofectamine™ 2000 system (Invitrogen, USA) was used to treat cells with the different aptamers. To prepare the DNA-lipofectamine complex, lipofectamine and DNA were separately diluted in opti-MEM (Gibco, USA) and left to incubate at room temperature for 5 minutes. They were then mixed to form lipofectamine-DNA complexes and incubated for 20 minutes at room temperature. Finally, the mixture was added to the cells that had been washed twice with antibiotic-free medium to prevent the interference thereof with lipofectamine. The cells were incubated at 37° C. for 5 hours, after which the reagent was removed and a complete medium was added.
(§4) MTT activity. The cells were seeded in 96-well plates and after having been transfected, the culture medium was removed and 100 μL/well of MTT at 1 mg/ml in culture medium were added. The plates were incubated for 90 minutes in an incubator with a moisture-saturated environment at 37° C. and 5% CO2/[…] and 100 μL/well of a lysis solution (10% SDS and 10 mM HCl) were added for dissolving the crystals. After 48 hours, the reduction of MTT was determined by means of spectrophotometry in Infinite F200 (TECAN, Switzerland) at 540 nm.
(§5) The results were expressed as the percentage of viability with respect to the control or in absorbance units.

[2] = test system: MDA-MB-231 cells; experiment: as above; format: cell-based, human; conditions: MDA-MB-231, aptamer 250 nM, 48 hours after transfection
Protocol: as §1, §2, §3, §4, §5

[3] = test system: MCF7 cells; conditions: cells with IC50 greater than 1 nM are considered resistant; cited from earlier work
[4] = test system: eIF4E; experiment: Western blot of phosphorylation, combined therapy study; format: cell-based, human; conditions: MDA-MB-231 and MCF7 cells, 24 hours
Protocol: (§6) FIG. 22A & 22B. Combined therapy studies of apMNKQ2 and everolimus. […] The different antibodies used are indicated.
(§7) Seventy-two hours after treatment, MTT activity was measured.

[5] = test system: AKT; experiment: as above; format: cell-based, human; conditions: MDA-MB-231 and MCF7 cells, 24 hours
Protocol: as §6, §7

[6] = test system: ribosomal protein S6; experiment: as above; format: cell-based, human; conditions: MDA-MB-231 and MCF7 cells, 24 hours
Protocol: as §6, §7

[7] = test system: MDA-MB-231 cells; conditions: cells with IC50 greater than 1 nM are considered resistant; cited from earlier work
[8] = test system: MNK1; experiment: Recognition of the two isoforms of MNK1 by precursor and truncated aptamers; format: binding
[9] = test system: DNase I; conditions: 1 unit of DNase I, 5 minutes at 37° C., same assay conditions (Garcia-Recio, Pinto-Diez et al. 2016); cited from earlier work

Row | Molecule | effect on MTT activity [1] | inhibition of MTT activity [2] | recognition of the two isoforms of MNK1 (MNK1a, MNK1b) [8] | further results
1 | 5′GGGTGGGGGTGGT-3′ (DNA, backbone not given here; further chemistry not fully specified) [apMNKQ3, 13-nucleotide aptamer designed from apMNK2FT] | partial effect | about 15% |  | 
2 | 5′TGGGGTGGGCGGGCGGGG-3′ (DNA, backbone and methylation of C not given here; further chemistry not fully specified) [apMNKQ1, 18-nucleotide aptamer designed from apMNK2FT based on G-quadruplex formation] | partial effect | 30% |  | 
3 | CO[C@H]1C[C@@H]2CC[C@@H](C)[C@@](O)(O2)C(=O)C(=O)N2CCCC[C@H]2C(=O)O[C@H]([C@H](C)C[C@@H]2CC[C@@H](OCCO)[C@H](OC)C2)CC(=O)[C@H](C)/C=C(\C)[C@@H](O)[C@@H](OC)C(=O)[C@H](C)C[C@H](C)/C=C/C=C/C=C/1C [everolimus, 40-O-(2-hydroxyethyl) derivative of sirolimus, reference compound] |  |  |  | sensitivity of the cell line to the drug [3]: resistant; phosphorylation of eIF4E [4]: increased; phosphorylation of AKT [5]: increased; phosphorylation of ribosomal protein S6 (dependent on mTOR activity) [6]: inhibiting mTOR; sensitivity of the cell line to the drug [7]: resistant
4 | 5′-GGGTGGTATGGCGCGTTGGCCC-3′ (DNA, backbone and methylation of C not given here; further chemistry not fully specified) [apMNKQ4, 22-nucleotide aptamer designed from apMNK2FT] | partial effect | about 15% |  | 
5 | 5′-TTTTTGGGGTGGGCGGGCGGGGGTGGGGGTGGTATGGCGCGTTGGCCC-3′ (DNA, backbone and methylation of C not given here; further chemistry not fully specified) [apMNK2FT, truncated 48-nucleotide aptamer derived from precursor aptamer apMNK2F] |  |  | recognized both isoforms in a similar manner | 
6 | apMNK2F: precursor (parental) aptamer against MNK1, described in Garcia-Recio, Pinto-Diez et al. 2016 (nucleic acid, DNA, backbone and methylation of C not given here; further chemistry not fully specified) DNA: GCGGATGAAGACTGGTGTGGGGTGGGCGGGCGGGGGTGGGGGTGGTATGGCGCGTTGGCCCTAAATACGAGCAAC |  |  | higher affinity for MNK1b | stability [9]: 0%
